Results as given in publication PMC12088000, “Design, synthesis and in silico molecular modelling studies of 2-Hydrazineyl-2-oxoethyl-4-(1H-pyrrol-1-yb) benzoate derivatives: a potent dual DHFR and ENR-reductase inhibitors with antitubercular, antibacterial and cytotoxic potential” (PLOS One, 2025).
≈ marks a conversion by molar mass, not a printed value.

Assays:
[1] = tested on: E. coli ATCC 25922; assay: Antibacterial activity, broth microdilution (E. coli); conditions: Escherichia coli, ATCC25922, read-out: E. coli ATCC 25922 (Gram –ve) MIC, broth microdilution
Experimental: (§1) All twenty-eight molecules were evaluated for in vitro antimicrobial activities that were assessed against Gram +ve and Gram -ve strains.
(§2) The antibacterial inhibitory effects of all compounds were assessed using the broth microdilution method, with ciprofloxacin serving as the reference medication.

[2] = molecular target: InhA enzyme from M. tuberculosis (Mycobacterium tuberculosis, UniProt P9WGR1); assay: InhA inhibition assay; type: biochemical; conditions: read-out: % InhA Inhibition at 50 µM
InhA enzyme from M. tuberculosis, sequence (P9WGR1 whole entry, looked up): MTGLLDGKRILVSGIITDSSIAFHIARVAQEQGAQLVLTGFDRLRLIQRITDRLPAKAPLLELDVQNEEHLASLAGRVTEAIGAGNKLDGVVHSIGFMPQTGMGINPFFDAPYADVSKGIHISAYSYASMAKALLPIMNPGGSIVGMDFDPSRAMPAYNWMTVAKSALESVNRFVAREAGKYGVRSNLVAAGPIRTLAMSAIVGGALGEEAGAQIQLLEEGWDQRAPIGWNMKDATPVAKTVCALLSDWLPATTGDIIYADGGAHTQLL

[3] = molecular target: MtDHFR (Mycobacterium tuberculosis, UniProt P9WNX1); assay: biochemical; type: biochemical
MtDHFR, sequence (P9WNX1 whole entry): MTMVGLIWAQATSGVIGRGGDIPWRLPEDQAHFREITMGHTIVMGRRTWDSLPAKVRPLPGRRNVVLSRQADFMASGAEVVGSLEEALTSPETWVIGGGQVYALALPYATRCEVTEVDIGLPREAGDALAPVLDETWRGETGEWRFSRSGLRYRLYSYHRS

[4] = tested on: M. tuberculosis H37Rv; assay: Antitubercular activity, Microplate Alamar Blue test (MABA); type: cell-based, Mycobacterium tuberculosis; conditions: n = 3; for MIC: Mycobacterium tuberculosis, H37RV
[5] = tested on: S. aureus ATCC 29213; assay: Antibacterial activity, broth microdilution (S. aureus); conditions: Staphylococcus aureus, ATCC29213, read-out: S. aureus ATCC 29213 (Gram +ve) MIC
Experimental: as §1, §2

[6] = tested on: human lung cancer cell line A549; assay: MTT-based cytotoxicity; type: cell-based; conditions: Homo sapiens, A549; MTT assay
Experimental: The cytotoxic effects of seventeen selected molecules were assessed against the A549 human lung adenocarcinoma cell line using the MTT assay. Cisplatin served as the reference drug for comparison. Lower IC50 values indicate higher cytotoxicity.
The cytotoxic activity (IC50) of selected compounds against A549 (lung adenocarcinoma) MV cell-lines was evaluated by performing cellular conversion of MTT [3-(4,5-dimethylthiazo-2-yl)-2,5-diphenyl-tetrazolium bromide] into a formazan product. This evaluation was conducted up to a concentration of 50 mg/mL using the Promega Cell Titre 96 non-radioactive cell proliferation assay, with cisplatin serving as the positive control. Cytotoxicity is commonly quantified by determining the IC50 value, which represents the quantity of a substance that reduces the optical density of treated cells by 50% compared to untreated cells, as measured by the MTT experiment. The results are presented as IC50 values (mean ± standard error of the mean (SEM) obtained from three separate and independent measurements.

With `CC(=NNC(=O)COC(=O)c1ccc(-n2cccc2)cc1)c1ccc(F)cc1` [Compound 5l, 2-(2-(1-(4-fluorophenyl)ethylidene)hydrazinyl)-2-oxoethyl 4-(1H-pyrrol-1-yl)benzoate] as the molecule, how does the MIC [1] read?
Its MIC is 3.12 µg/mL (≈ 8.22 µM).

And the inhibition at 50 µM [2]?
The inhibition at 50 µM was 46%.

What about the IC50 [3] of the same molecule?
The IC50 was 65 µM.

And the “MtDHFR inhibition, in words, compared with trimethoprim” value [3]?
The value was “moderate inhibition”.

And the MIC [4]?
The MIC was 1.6 µg/mL (≈ 4.22 µM).

And the MIC [5]?
Its MIC is 12.5 µg/mL (≈ 32.9 µM).

What about the IC50 [6] of the same molecule?
Its IC50 is 241 ± 0.6 µg/mL (≈ 635 µM).

With `O=C(OCC(=O)n1[nH]c(=O)c2c(Cl)c(Cl)c(Cl)c(Cl)c2c1=O)c1ccc(-n2cccc2)cc1` [Compound 4b, 2-oxo-2-(5,6,7,8-tetrachloro-1,4-dioxo-3,4-dihydrophthalazin-2(1H)-yl)ethyl 4-(1H-pyrrol-1-yl)benzoate] as the molecule, how does the MIC [1] read?
Its MIC is 0.8 µg/mL (≈ 1.52 µM).

And the inhibition at 50 µM [2]?
Its inhibition at 50 µM is 29%.

And the IC50 [3]?
The IC50 was 25 µM.

What about the “MtDHFR inhibition, in words, compared with trimethoprim” value [3] of the same molecule?
The value was “greater inhibition characteristics than trimethoprim”.

What about the MIC [4] of the same molecule?
The MIC was 1.6 µg/mL (≈ 3.04 µM).

And the MIC [5]?
The MIC was 6.25 µg/mL (≈ 11.9 µM).

What about the IC50 [6] of the same molecule?
Its IC50 is 319 ± 0.4 µg/mL (≈ 605 µM).

How did the MIC [1] turn out when `O=C(COC(=O)c1ccc(-n2cccc2)cc1)NN=Cc1ccc(Cl)cc1` [Compound 6d, 2-(2-(4-chlorobenzylidene)hydrazinyl)-2-oxoethyl 4-(1H-pyrrol-1-yl)benzoate] was run?
Its MIC is 1.6 µg/mL (≈ 4.19 µM).

What about the inhibition at 50 µM [2] of the same molecule?
Its inhibition at 50 µM is 18%.

What about the IC50 [3] of the same molecule?
Its IC50 is 62 µM.

What about the “MtDHFR inhibition, in words, compared with trimethoprim” value [3] of the same molecule?
Its value is “moderate inhibition”.

And the MIC [4]?
The MIC was 0.8 µg/mL (≈ 2.1 µM).

And the “M. tuberculosis H37Rv MIC values” [4]?
The value was 0.8 µg/mL.

What about the MIC [5] of the same molecule?
The MIC was 3.12 µg/mL (≈ 8.17 µM).

And the IC50 [6]?
The IC50 was 262 ± 0.7 µg/mL (≈ 686 µM).

Which MIC [1] does the source give for `O=C(OCC(=O)n1[nH]c(=O)c2c(Br)c(Br)c(Br)c(Br)c2c1=O)c1ccc(-n2cccc2)cc1` [Compound 4c, 2-oxo-2-(5,6,7,8-tetrabromo-1,4-dioxo-3,4-dihydrophthalazin-2(1H)-yl)ethyl 4-(1H-pyrrol-1-yl)benzoate] here?
The MIC was 0.8 µg/mL (≈ 1.13 µM).

And the inhibition at 50 µM [2]?
Its inhibition at 50 µM is 51%.

And the IC50 [3]?
The IC50 was 21 µM.

And the “MtDHFR inhibition, in words, compared with trimethoprim” value [3]?
Its value is “greater inhibition characteristics than trimethoprim”.

What about the MIC [4] of the same molecule?
The MIC was 1.6 µg/mL (≈ 2.27 µM).

And the MIC [5]?
Its MIC is 6.25 µg/mL (≈ 8.87 µM).

And the IC50 [6]?
The IC50 was 287 ± 0.7 µg/mL (≈ 407 µM).

What does the source list for `O=C(COC(=O)c1ccc(-n2cccc2)cc1)NN=Cc1ccc([N+](=O)[O-])cc1` [Compound 6c, 2-(2-(4-nitrobenzylidene)hydrazinyl)-2-oxoethyl 4-(1H-pyrrol-1-yl)benzoate]?
MIC [1]: 1.6 µg/mL (≈ 4.08 µM); inhibition at 50 µM [2]: 9%; IC50 [3]: 133 µM; MIC [4]: 1.6 µg/mL (≈ 4.08 µM); MIC [5]: 6.25 µg/mL (≈ 15.9 µM); IC50 [6]: 296 ± 0.3 µg/mL (≈ 754 µM)

How did the MIC [1] turn out when `CC(=NNC(=O)COC(=O)c1ccc(-n2cccc2)cc1)c1cccc([N+](=O)[O-])c1` [Compound 5g, 2-(2-(1-(3-nitrophenyl)ethylidene)hydrazinyl)-2-oxoethyl 4-(1H-pyrrol-1-yl)benzoate] was run?
Its MIC is 1.6 µg/mL (≈ 3.94 µM).

What about the inhibition at 50 µM [2] of the same molecule?
Its inhibition at 50 µM is 34%.

What about the IC50 [3] of the same molecule?
The IC50 was 132 µM.

What about the MIC [4] of the same molecule?
The MIC was 1.6 µg/mL (≈ 3.94 µM).

And the MIC [5]?
The MIC was 6.25 µg/mL (≈ 15.4 µM).

What about the IC50 [6] of the same molecule?
Its IC50 is 249 ± 0.9 µg/mL (≈ 613 µM).

With `CC(=NNC(=O)COC(=O)c1ccc(-n2cccc2)cc1)c1ccccc1` [Compound 5a, 2-oxo-2-(2-(1-phenylethylidene)hydrazinyl)ethyl 4-(1H-pyrrol-1-yl)benzoate] as the molecule, how does the MIC [1] read?
The MIC was 1.6 µg/mL (≈ 4.43 µM).

And the inhibition at 50 µM [2]?
Its inhibition at 50 µM is 26%.

And the IC50 [3]?
The IC50 was 95 µM.

And the MIC [4]?
The MIC was 1.6 µg/mL (≈ 4.43 µM).

What about the MIC [5] of the same molecule?
The MIC was 12.5 µg/mL (≈ 34.6 µM).

What about the IC50 [6] of the same molecule?
The IC50 was 225 ± 0.3 µg/mL (≈ 623 µM).
